Data on 13 compounds can be found in US11957759B1, “Rapidly accelerated fibrosarcoma (RAF) degrading compounds and associated methods of use” (Arvinas Operations, Inc., priority 2022, dated 2024).

Test [1] has as its target T1, B-RAF V600E (Homo sapiens, UniProt P15056, V600E).
T1 construct: expressed in transfected cells; host or cells: T-Rex 293 cells (Invitrogen #R71007)
Put plainly: Target protein degradation, assay C: T-Rex 293 cells, HA-BRAF_V600E, 384 well format. The test is classed as cell-based. The settings on record: T-Rex 293 HA-BRAF_V600E cells, 24 hours, Examples 83-269; for DC50: Assay C; for Dmax: T-REx-293, Assay C. A digest of the protocol: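 After 24 h exposure to an 11-point 1:3 series (300 nM–5 pM, 0.5% DMSO), fixed T-Rex 293 cells carrying HA-BRAF V600E (induced with 1 ng/mL doxycycline) were stained anti-HA and imaged. DC50 and Dmax were derived from BRAF intensity relative to control, and cytotoxicity from nuclear counts.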

Test [2] has as its target T2, B-RAF G466V (Homo sapiens, UniProt P15056, G466V).
T2 construct: expressed in transfected cells; host or cells: T-Rex 293 cells (Invitrogen #R71007)
Description: Target protein degradation, assay D: T-Rex 293 cells, HA-BRAF_G466V, 384 well format. As to conditions: T-Rex 293 HA-BRAF_G466V cells, 24 hours, Examples 83-269; for DC50: Assay D; for Dmax: T-REx-293, Assay D. The test is classed as cell-based. The gist of the method: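 Degradation measured by high-content imaging of anti-HA immunofluorescence in fixed T-Rex 293 cells carrying inducible HA-BRAF G466V (1 ng/mL doxycycline), after 24 h PROTAC exposure at 37 °C over 300 nM–5 pM (1:3, 11 points, 0.5% DMSO). Outputs DC50 and Dmax as % of control; nuclei counts against DMSO wells gauge toxicity.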

T1 sequence (P15056 whole entry V600E): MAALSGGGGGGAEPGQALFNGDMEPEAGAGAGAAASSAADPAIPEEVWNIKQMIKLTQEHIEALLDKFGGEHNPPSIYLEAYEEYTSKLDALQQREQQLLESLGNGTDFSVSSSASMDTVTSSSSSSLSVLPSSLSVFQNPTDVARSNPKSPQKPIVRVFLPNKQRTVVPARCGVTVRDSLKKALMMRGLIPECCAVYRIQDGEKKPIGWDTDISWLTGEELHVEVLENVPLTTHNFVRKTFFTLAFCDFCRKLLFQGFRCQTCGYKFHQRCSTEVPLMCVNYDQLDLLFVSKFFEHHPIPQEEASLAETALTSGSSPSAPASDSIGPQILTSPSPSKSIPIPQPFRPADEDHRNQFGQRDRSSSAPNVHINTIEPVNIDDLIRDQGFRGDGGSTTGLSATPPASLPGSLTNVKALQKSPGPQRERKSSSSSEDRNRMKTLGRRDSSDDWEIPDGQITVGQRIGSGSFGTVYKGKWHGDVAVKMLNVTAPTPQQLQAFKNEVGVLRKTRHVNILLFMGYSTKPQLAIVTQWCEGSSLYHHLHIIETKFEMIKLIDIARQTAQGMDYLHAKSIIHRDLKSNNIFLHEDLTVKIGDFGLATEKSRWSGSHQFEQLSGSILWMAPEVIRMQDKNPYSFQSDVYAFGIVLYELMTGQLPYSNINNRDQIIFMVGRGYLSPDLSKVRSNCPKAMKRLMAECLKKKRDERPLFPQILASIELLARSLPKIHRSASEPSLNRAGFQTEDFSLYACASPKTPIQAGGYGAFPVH
T2 sequence (P15056 whole entry G466V): as the sequence (P15056 whole entry V600E) above, with G466V, E600V counted along it

One may read the DC50 as the concentration at which degradation of the target reaches its halfway point. Low values mean degradation at low concentration, high ones degradation only at high concentration. As a reminder, the Dmax is the greatest extent of degradation seen. Read a low Dmax as shallow degradation. In test [1], `N#Cc1c(NS(=O)(=O)N2CC[C@@H](F)C2)ccc(F)c1Oc1ccc2ncn(-c3ccc(N4CCN(CC5CCN(c6ccc(F)c(C(=O)NC7CCC(=O)NC7=O)c6)CC5)CC4)nc3)c(=O)c2c1` (stereo partly drawn) [Example 140, 5-(4-{[4-(5-{6-[2-cyano-6-fluoro-3-({[(3R)-3-fluoropyrrolidin-1-yl]sulfonyl}amino)phenoxy]-4-oxo-3,4-dihydroquinazolin-3-yl}pyridin-2-yl)piperazin-1-yl]methyl}piperidin-1-yl)-N-(2,6-dioxopiperidin-3-yl)-2-fluorobenzamide] returned a 50% degradation concentration (DC50) of 50 to 500 nM and a maximal degradation (Dmax) not above 35%. In test [2], this compound registered a 50% degradation concentration (DC50) of more than 30 nM.

Regarding `COc1ccc(N2CCC(CN3CCN(c4ccc(-n5cnc6ccc(Oc7c(F)ccc(NS(=O)(=O)N8CC[C@@H](F)C8)c7C#N)cc6c5=O)cn4)CC3)CC2)cc1C(=O)NC1CCC(=O)NC1=O` (stereo partly drawn) [Example 141, 5-(4-{[4-(5-{6-[2-cyano-6-fluoro-3-({[(3R)-3-fluoropyrrolidin-1-yl]sulfonyl}amino)phenoxy]-4-oxo-3,4-dihydroquinazolin-3-yl}pyridin-2-yl)piperazin-1-yl]methyl}piperidin-1-yl)-N-(2,6-dioxopiperidin-3-yl)-2-methoxybenzamide], the DC50 in test [1] fell in the range of 50 to 500 nM; in test [2] it was 1 to 10 nM. The Dmax in test [1] and in test [2] was not above 35% throughout.

In the case of `N#Cc1c(NS(=O)(=O)N2CC[C@@H](F)C2)ccc(F)c1Oc1ccc2ncn(-c3ccc(N4CCN(CC5CCN(c6ccc(N7CCC(=O)NC7=O)c(F)c6)CC5)CC4)nc3)c(=O)c2c1` [Example 142, (3R)-N-{2-cyano-3-[(3-{6-[4-({1-[4-(2,4-dioxo-1,3-diazinan-1-yl)-3-fluorophenyl]piperidin-4-yl}methyl)piperazin-1-yl]pyridin-3-yl}-4-oxo-3,4-dihydroquinazolin-6-yl)oxy]-4-fluorophenyl}-3-fluoropyrrolidine-1-sulfonamide], in test [1], the 50% degradation concentration (DC50) is 5 to 50 nM and the greatest degradation seen (Dmax) was in the range of 35 to 70%. Moreover, in test [2], the half-maximal degradation concentration (DC50) was not above 1 nM and the Dmax was not above 35%.

In test [1], `N#Cc1c(NS(=O)(=O)N2CC[C@@H](F)C2)ccc(F)c1Oc1ccc2ncn(-c3ccc(N4CCN(c5ccc6c(c5)CN(C5CCC(=O)NC5=O)C6=O)CC4)nc3)c(=O)c2c1` (stereo partly shown) [Example 143] gave a DC50 not above 5 nM and a maximal degradation (Dmax) of 35 to 70%. Further, the DC50 in test [2] was more than 30 nM.

For the compound `N#Cc1c(NS(=O)(=O)N2CC[C@@H](F)C2)ccc(F)c1Oc1ccc2ncn(-c3ccc(N4CCC(COCC5CCN(c6ccc7c(c6)C(=O)N(C6CCC(=O)NC6=O)C7=O)CC5)CC4)nc3)c(=O)c2c1` (stereo partly drawn) [Example 144, (3R)-N-(2-cyano-3-{[3-(6-{4-[{{1-[2-(2,6-dioxopiperidin-3-yl)-1,3-dioxo-2,3-dihydro-1H-isoindol-5-yl]piperidin-4-yl}methoxy)methyl]piperidin-1-yl}pyridin-3-yl)-4-oxo-3,4-dihydroquinazolin-6-yl]oxy}-4-fluorophenyl)-3-fluoropyrrolidine-1-sulfonamide], in test [1], the DC50 lay within 5 to 50 nM and the Dmax is not above 35%. In test [2], this compound yielded a DC50 of 10 to 30 nM and a Dmax not above 35%.

For the compound `N#Cc1c(NS(=O)(=O)N2CC[C@@H](F)C2)ccc(F)c1Oc1ccc2ncn(-c3ccc(N4CCC5(CCN(CC6CCN(c7ccc8c(c7)C(=O)N(C7CCC(=O)NC7=O)C8=O)CC6)CC5)CC4)nc3)c(=O)c2c1` (stereo partly drawn) [Example 145, (3R)-N-{2-cyano-3-[(3-{6-[9-({1-[2-(2,6-dioxopiperidin-3-yl)-1,3-dioxo-2,3-dihydro-1H-isoindol-5-yl]piperidin-4-yl}methyl)-3,9-diazaspiro[5.5]undecan-3-yl]pyridin-3-yl}-4-oxo-3,4-dihydroquinazolin-6-yl)oxy]-4-fluorophenyl}-3-fluoropyrrolidine-1-sulfonamide], in test [1], the 50% degradation concentration (DC50) is 50 to 500 nM and the Dmax was in the range of 35 to 70%. In test [2], the half-maximal degradation concentration (DC50) lay within 1 to 10 nM and the Dmax was in the range of 35 to 70%.

In test [1], `N#Cc1c(NS(=O)(=O)N2CC[C@@H](F)C2)ccc(F)c1Oc1ccc2ncn(-c3ccc(N4CCC(CN5CCC6(CC5)CCN(c5ccc7c(c5)C(=O)N(C5CCC(=O)NC5=O)C7=O)CC6)CC4)nc3)c(=O)c2c1` (stereo partly drawn) [Example 146, (3R)-N-{2-cyano-3-[(3-{6-[4-({9-[2-(2,6-dioxopiperidin-3-yl)-1,3-dioxo-2,3-dihydro-1H-isoindol-5-yl]-3,9-diazaspiro[5.5]undecan-3-yl}methyl)piperidin-1-yl]pyridin-3-yl}-4-oxo-3,4-dihydroquinazolin-6-yl)oxy]-4-fluorophenyl}-3-fluoropyrrolidine-1-sulfonamide] yielded a DC50 of 5 to 50 nM and a Dmax of 35 to 70%. Further, in test [2], the 50% degradation concentration (DC50) lay in the range of 1 to 10 nM and the Dmax fell in the range of 35 to 70%.

In the case of `N#Cc1c(NS(=O)(=O)N2CC[C@@H](F)C2)ccc(F)c1Oc1ccc2ncn(-c3ccc(N4CCC(CN5CCN(CC6CCN(c7ccc8c(c7)C(=O)N(C7CCC(=O)NC7=O)C8=O)CC6)CC5)CC4)nc3)c(=O)c2c1` (stereo partly drawn) [Example 147, (3R)-N-[2-cyano-3-({3-[6-(4-{[4-({1-[2-(2,6-dioxopiperidin-3-yl)-1,3-dioxo-2,3-dihydro-1H-isoindol-5-yl]piperidin-4-yl}methyl)piperazin-1-yl]methyl}piperidin-1-yl)pyridin-3-yl]-4-oxo-3,4-dihydroquinazolin-6-yl}oxy)-4-fluorophenyl]-3-fluoropyrrolidine-1-sulfonamide], in test [1], the 50% degradation concentration (DC50) lay in the range of 5 to 50 nM and the Dmax lay in the range of 35 to 70%. In test [2], this compound came in with a DC50 of 1 to 10 nM and a Dmax of 35 to 70%.

In test [1], `N#Cc1c(NS(=O)(=O)N2CC[C@@H](F)C2)ccc(F)c1Oc1ccc2ncn(-c3ccc(N4CCC5(CCN(c6ccc7c(c6)C(=O)N(C6CCC(=O)NC6=O)C7=O)CC5)CC4)nc3)c(=O)c2c1` (stereo partly drawn) [Example 148, (3R)-N-(2-cyano-3-{[3-(6-{9-[2-(2,6-dioxopiperidin-3-yl)-1,3-dioxo-2,3-dihydro-1H-isoindol-5-yl]-3,9-diazaspiro[5.5]undecan-3-yl}pyridin-3-yl)-4-oxo-3,4-dihydroquinazolin-6-yl]oxy}-4-fluorophenyl)-3-fluoropyrrolidine-1-sulfonamide] had a DC50 of 50 to 500 nM and a maximal degradation (Dmax) not above 35%. Besides, the DC50 in test [2] is more than 30 nM.

In the case of `N#Cc1c(NS(=O)(=O)N2CC[C@@H](F)C2)ccc(F)c1Oc1ccc2ncn(-c3ccc(N4CCC(CN5CCC(Oc6ccc7c(c6)C(=O)N(C6CCC(=O)NC6=O)C7=O)CC5)CC4)nc3)c(=O)c2c1` (stereo partly drawn) [Example 149, (3R)-N-(2-cyano-3-{[3-(6-{4-[(4-{[2-(2,6-dioxopiperidin-3-yl)-1,3-dioxo-2,3-dihydro-1H-isoindol-5-yl]oxy}piperidin-1-yl)methyl]piperidin-1-yl}pyridin-3-yl)-4-oxo-3,4-dihydroquinazolin-6-yl]oxy}-4-fluorophenyl)-3-fluoropyrrolidine-1-sulfonamide], in test [1], the DC50 was 5 to 50 nM and the greatest degradation seen (Dmax) is not above 35%. In test [2], this compound returned a half-maximal degradation concentration (DC50) of 10 to 30 nM and a maximal degradation (Dmax) of 35 to 70%.

In test [1], `N#Cc1c(NS(=O)(=O)N2CC[C@@H](F)C2)ccc(F)c1Oc1ccc2ncn(-c3ccc(N4CCN(CCCOc5cccc6c5C(=O)N(C5CCC(=O)NC5=O)C6=O)CC4)nc3)c(=O)c2c1` (stereo partly drawn) [Example 150, (3R)-N-{2-cyano-3-[(3-{6-[4-(3-{[2-(2,6-dioxopiperidin-3-yl)-1,3-dioxo-2,3-dihydro-1H-isoindol-4-yl]oxy}propyl)piperazin-1-yl]pyridin-3-yl}-4-oxo-3,4-dihydroquinazolin-6-yl)oxy]-4-fluorophenyl}-3-fluoropyrrolidine-1-sulfonamide] registered a half-maximal degradation concentration (DC50) not above 5 nM and a Dmax of 35 to 70%. In test [2], this compound had a DC50 not above 1 nM and a maximal degradation (Dmax) not above 35%.

With `N#Cc1c(NS(=O)(=O)N2CC[C@@H](F)C2)ccc(F)c1Oc1ccc2ncn(-c3cnc(N4CCN(CCN5CCN(c6ccc7c(c6)CN(C6CCC(=O)NC6=O)C7=O)CC5)CC4)nc3)c(=O)c2c1` (stereo partly drawn) [Example 151, (3R)-N-{2-cyano-3-[(3-{2-[4-(2-{4-[2-(2,6-dioxopiperidin-3-yl)-1-oxo-2,3-dihydro-1H-isoindol-5-yl]piperazin-1-yl}ethyl)piperazin-1-yl]pyrimidin-5-yl}-4-oxo-3,4-dihydroquinazolin-6-yl)oxy]-4-fluorophenyl}-3-fluoropyrrolidine-1-sulfonamide], in test [1], the half-maximal degradation concentration (DC50) fell in the range of 5 to 50 nM and the Dmax fell in the range of 35 to 70%. In test [2], the DC50 lay in the range of 1 to 10 nM and the Dmax was 35 to 70%.

In test [1], `CC(C)(C1CCN(c2ncc(-n3cnc4ccc(Oc5c(F)ccc(NS(=O)(=O)N6CC[C@@H](F)C6)c5C#N)cc4c3=O)cn2)CC1)N1CCN(c2ccc3c(c2)C(=O)N(C2CCC(=O)NC2=O)C3=O)CC1` (stereo partly drawn) [Example 152, (3R)-N-{2-cyano-3-[(3-{2-[4-(2-{4-[2-(2,6-dioxopiperidin-3-yl)-1,3-dioxo-2,3-dihydro-1H-isoindol-5-yl]piperazin-1-yl}propan-2-yl)piperidin-1-yl]pyrimidin-5-yl}-4-oxo-3,4-dihydroquinazolin-6-yl)oxy]-4-fluorophenyl}-3-fluoropyrrolidine-1-sulfonamide] gave a 50% degradation concentration (DC50) of 50 to 500 nM and a Dmax of 35 to 70%. In test [2], this compound yielded a DC50 of 1 to 10 nM and a Dmax not above 35%.
